Several values for one entry are separate records, joined by “and”; a condition that tells them apart may be missing. Equal entries are not always repeated. Where two headings read alike, the source gives them in different places.
Columns and labels:
[1] = system: M. tuberculosis H37Rv inhA (S94A); assay type: cell-based, Mycobacterium tuberculosis
[2] = system: M. tuberculosis clinical isolate 12081; assay type: cell-based; conditions: for MIC clinical isolate 12081: multi-drug resistant isolate, four weeks
[3] = system: M. tuberculosis clinical isolate 5071; assay type: cell-based; conditions: multi-drug resistant isolate, four weeks
[4] = system: M. tuberculosis H37Rv ΔkatG; assay type: cell-based, Mycobacterium tuberculosis

| Molecule | MIC H37Rv inhA (S94A) [1] | MIC clinical isolate 12081 [2] [µg/mL] | MIC clinical isolate 12081 ([2]; value in parentheses) [µM] | MIC clinical isolate 5071 [3] [µg/mL] | MIC clinical isolate 5071 ([3]; value in parentheses) [µM] | fold loss in potency versus InhA(S94A) strain compared to wild-type [1] [fold] | times less active against the ΔkatG mutant [4] | fold resistance of strain 12081 ([2]; MIC ratio vs wild-type strain) [fold] |
| --- | --- | --- | --- | --- | --- | --- | --- | --- |
| 5-n-butyltriclosan [Compound 10] | 37 (120) µg/ml and 37 (120) µM | 37 | 120 | 4.7 | 15 |  |  |  |
| NNC(=O)c1ccncc1 [INH, isoniazid] | 0.50 (3.6) µg/ml and 0.50 (3.6) µM |  |  |  |  | 8 | more than 3000 times | 17 |

Reference: publication PMC3541007 (ChemMedChem, 2009)
